Laboratory results: ChEMBL document CHEMBL5512655, “Discovery of indolylacryloyl-derived oxacins as novel potential broad-spectrum antibacterial candidates” (Eur J Med Chem, 2024)
Converted amounts (≈) assume the structure as drawn.

How the values were obtained:
Assay type in all cases: functional
Staphylococcus aureus [1] = test: Antibacterial activity against methicillin-resistant Staphylococcus aureus N315 assessed as inhibition of bacterial growth measured after 24 hrs incubation
Staphylococcus aureus [2] = test: Antibacterial activity against Staphylococcus aureus assessed as inhibition of bacterial growth measured after 24 hrs incubation
Staphylococcus aureus [3] = test: Antibacterial activity against Staphylococcus aureus ATCC 25923 assessed as inhibition of bacterial growth measured after 24 hrs incubation
Staphylococcus aureus [4] = test: Antibacterial activity against Staphylococcus aureus ATCC 29213 assessed as inhibition of bacterial growth measured after 24 hrs incubation
Enterococcus faecalis = test: Antibacterial activity against Enterococcus faecalis assessed as inhibition of bacterial growth measured after 24 hrs incubation
Klebsiella pneumoniae = test: Antibacterial activity against Klebsiella pneumonia assessed as inhibition of bacterial growth measured after 24 hrs incubation
Escherichia coli [5] = test: Antibacterial activity against Escherichia coli assessed as inhibition of bacterial growth measured after 24 hrs incubation
Escherichia coli [6] = test: Antibacterial activity against Escherichia coli ATCC 25922 assessed as inhibition of bacterial growth measured after 24 hrs incubation
Pseudomonas aeruginosa [7] = test: Antibacterial activity against Pseudomonas aeruginosa assessed as inhibition of bacterial growth measured after 24 hrs incubation
Pseudomonas aeruginosa [8] = test: Antibacterial activity against Pseudomonas aeruginosa ATCC 27853 assessed as inhibition of bacterial growth measured after 24 hrs incubation
Acinetobacter baumannii = test: Antibacterial activity against Acinetobacter baumannii assessed as inhibition of bacterial growth measured after 24 hrs incubation

Compound | MIC (Staphylococcus aureus [1]) [µg/mL] | MIC (Staphylococcus aureus [2]) [µg/mL] | MIC (Staphylococcus aureus [3]) [µg/mL] | MIC (Staphylococcus aureus [4]) [µg/mL] | MIC (Enterococcus faecalis) [µg/mL] | MIC (Klebsiella pneumoniae) [µg/mL] | MIC (Escherichia coli [5]) [µg/mL] | MIC (Escherichia coli [6]) [µg/mL] | MIC (Pseudomonas aeruginosa [7]) [µg/mL] | MIC (Pseudomonas aeruginosa [8]) [µg/mL] | MIC (Acinetobacter baumannii) [µg/mL]
CCn1cc(C(=O)O)c(=O)c2cc(F)c(N3CCN(C(=O)/C(C#N)=C/c4cn(Cc5ccc(Cl)c(Cl)c5)c5ccccc45)CC3)cc21 | 4 (≈ 5.95 µM) | 16 (≈ 23.8 µM) | 64 (≈ 95.2 µM) | 64 (≈ 95.2 µM) | 32 (≈ 47.6 µM) | 1 (≈ 1.49 µM) | 8 (≈ 11.9 µM) | 32 (≈ 47.6 µM) | 2 (≈ 2.97 µM) | 1 (≈ 1.49 µM) | 64 (≈ 95.2 µM)
CCn1cc(C(=O)O)c(=O)c2cc(F)c(N3CCN(C(=O)/C(C#N)=C/c4cn(CC(=O)N5CCOCC5)c5ccccc45)CC3)cc21 | 2 (≈ 3.12 µM) | 8 (≈ 12.5 µM) | 2 (≈ 3.12 µM) | 4 (≈ 6.24 µM) | 1 (≈ 1.56 µM) | 1 (≈ 1.56 µM) | 0.5 (≈ 0.78 µM) | 0.5 (≈ 0.78 µM) | 1 (≈ 1.56 µM) | 0.25 (≈ 0.39 µM) | 0.5 (≈ 0.78 µM)
CCn1cc(C(=O)O)c(=O)c2cc(F)c(N3CCNCC3)cc21 [NORFLOXACIN] | 0.5 (≈ 1.57 µM) | 0.5 (≈ 1.57 µM) | 2 (≈ 6.26 µM) | 1 (≈ 3.13 µM) | 0.5 (≈ 1.57 µM) | 0.5 (≈ 1.57 µM) | 2 (≈ 6.26 µM) | 0.5 (≈ 1.57 µM) | 4 (≈ 12.5 µM) | 1 (≈ 3.13 µM) | 1 (≈ 3.13 µM)
CCOC(=O)Cn1cc(/C=C(\C#N)C(=O)N2CCN(c3cc4c(cc3F)c(=O)c(C(=O)O)cn4Cc3ccccc3)CC2)c2ccccc21 | 256 (≈ 387 µM) | 256 (≈ 387 µM) | 256 (≈ 387 µM) | 256 (≈ 387 µM) | 0.25 (≈ 0.378 µM) | 2 (≈ 3.02 µM) | 8 (≈ 12.1 µM) | 16 (≈ 24.2 µM) | 256 (≈ 387 µM) | 4 (≈ 6.05 µM) | 4 (≈ 6.05 µM)
CCn1cc(C(=O)O)c(=O)c2cc(F)c(N3CCN(C(=O)/C(C#N)=C/c4cn(Cc5cccc(F)c5)c5ccccc45)CC3)cc21 | 16 (≈ 25.7 µM) | 32 (≈ 51.5 µM) | 16 (≈ 25.7 µM) | 8 (≈ 12.9 µM) | 16 (≈ 25.7 µM) | 1 (≈ 1.61 µM) | 0.25 (≈ 0.402 µM) | 0.25 (≈ 0.402 µM) | 2 (≈ 3.22 µM) | 1 (≈ 1.61 µM) | 0.5 (≈ 0.804 µM)
CCCCCCCCn1cc(/C=C(\C#N)C(=O)N2CCN(c3cc4c(cc3F)c(=O)c(C(=O)O)cn4CC)CC2)c2ccccc21 | 0.5 (≈ 0.799 µM) | 1 (≈ 1.6 µM) | 0.25 (≈ 0.4 µM) | 1 (≈ 1.6 µM) | 1 (≈ 1.6 µM) | 2 (≈ 3.2 µM) | 64 (≈ 102 µM) | 4 (≈ 6.39 µM) | 16 (≈ 25.6 µM) | 32 (≈ 51.1 µM) | 8 (≈ 12.8 µM)
CCn1cc(C(=O)O)c(=O)c2cc(F)c(N3CCN(C(=O)/C(C#N)=C/c4cn(CC5CCC5)c5ccccc45)CC3)cc21 | 0.25 (≈ 0.43 µM) | 0.25 (≈ 0.43 µM) | 0.25 (≈ 0.43 µM) | 0.25 (≈ 0.43 µM) | 0.5 (≈ 0.86 µM) | 0.25 (≈ 0.43 µM) | 0.5 (≈ 0.86 µM) | 0.5 (≈ 0.86 µM) | 0.25 (≈ 0.43 µM) | 4 (≈ 6.88 µM) | 0.25 (≈ 0.43 µM)
C=CCn1cc(/C=C(\C#N)C(=O)N2CCN(c3cc4c(cc3F)c(=O)c(C(=O)O)cn4CC)CC2)c2ccccc21 | 2 (≈ 3.61 µM) | 1 (≈ 1.81 µM) | 1 (≈ 1.81 µM) | 16 (≈ 28.9 µM) | 8 (≈ 14.5 µM) | 1 (≈ 1.81 µM) | 8 (≈ 14.5 µM) | 1 (≈ 1.81 µM) | 1 (≈ 1.81 µM) | 0.25 (≈ 0.452 µM) | 2 (≈ 3.61 µM)
CCOC(=O)Cn1cc(/C=C(\C#N)C(=O)N2CCN(c3cc4c(cc3F)c(=O)c(C(=O)O)cn4CC=C(C)C)CC2)c2ccccc21 | 8 (≈ 12.5 µM) | 16 (≈ 25 µM) | 16 (≈ 25 µM) | 8 (≈ 12.5 µM) | 0.25 (≈ 0.391 µM) | 1 (≈ 1.56 µM) | 32 (≈ 50 µM) | 0.5 (≈ 0.782 µM) | 16 (≈ 25 µM) | 16 (≈ 25 µM) | 16 (≈ 25 µM)
CCCCn1cc(/C=C(\C#N)C(=O)N2CCN(c3cc4c(cc3F)c(=O)c(C(=O)O)cn4CC)CC2)c2ccccc21 | 2 (≈ 3.51 µM) | 2 (≈ 3.51 µM) | 4 (≈ 7.02 µM) | 1 (≈ 1.76 µM) | 2 (≈ 3.51 µM) | 0.5 (≈ 0.878 µM) | 4 (≈ 7.02 µM) | 2 (≈ 3.51 µM) | 1 (≈ 1.76 µM) | 1 (≈ 1.76 µM) | 2 (≈ 3.51 µM)
CCn1cc(C(=O)O)c(=O)c2cc(F)c(N3CCN(C(=O)/C(C#N)=C/c4cn(Cc5ccccc5)c5ccccc45)CC3)cc21 | 4 (≈ 6.63 µM) | 4 (≈ 6.63 µM) | 4 (≈ 6.63 µM) | 4 (≈ 6.63 µM) | 4 (≈ 6.63 µM) | 0.5 (≈ 0.828 µM) | 1 (≈ 1.66 µM) | 2 (≈ 3.31 µM) | 256 (≈ 424 µM) | 1 (≈ 1.66 µM) | 2 (≈ 3.31 µM)
CCn1cc(C(=O)O)c(=O)c2cc(F)c(N3CCN(C(=O)/C(C#N)=C/c4c[nH]c5cc(C)ccc45)CC3)cc21 | 0.25 (≈ 0.474 µM) | 0.25 (≈ 0.474 µM) | 0.25 (≈ 0.474 µM) | 1 (≈ 1.9 µM) | 2 (≈ 3.79 µM) | 0.25 (≈ 0.474 µM) | 1 (≈ 1.9 µM) | 0.5 (≈ 0.948 µM) | 0.25 (≈ 0.474 µM) | 2 (≈ 3.79 µM) | 0.25 (≈ 0.474 µM)
